In US20220401592A1, “LOW MOLECULAR WEIGHT AND POLYAMIDOAMINE (PAMAM) DENDRIMER BASED PSMA-SPECIFIC DUAL CONTRAST AGENTS FOR OPTICAL AND PHOTOACOUSTIC IMAGING AND THERANOSTIC AGENTS FOR TREATING PROSTATE CANCER” (priority 2021, published 2022):

Assays:
PSMA [1] = molecular target: T1, PSMA (Homo sapiens, UniProt Q04609); assay: In vitro binding assay of conjugates with PSMA+ PC3 PIP cells (vs PSMA- PC3 flu cells); design: expressed in transfected cells; host or cells: PSMA+ PC3 PIP (human prostate cancer PC3 subline); PSMA- PC3 flu as negative control; conditions: for Kd: PSMA+ PC3 PIP cells, fluorescence intensity vs concentration, read-out: Kd, dissociation constant
Target sequence in this assay (Q04609 whole entry): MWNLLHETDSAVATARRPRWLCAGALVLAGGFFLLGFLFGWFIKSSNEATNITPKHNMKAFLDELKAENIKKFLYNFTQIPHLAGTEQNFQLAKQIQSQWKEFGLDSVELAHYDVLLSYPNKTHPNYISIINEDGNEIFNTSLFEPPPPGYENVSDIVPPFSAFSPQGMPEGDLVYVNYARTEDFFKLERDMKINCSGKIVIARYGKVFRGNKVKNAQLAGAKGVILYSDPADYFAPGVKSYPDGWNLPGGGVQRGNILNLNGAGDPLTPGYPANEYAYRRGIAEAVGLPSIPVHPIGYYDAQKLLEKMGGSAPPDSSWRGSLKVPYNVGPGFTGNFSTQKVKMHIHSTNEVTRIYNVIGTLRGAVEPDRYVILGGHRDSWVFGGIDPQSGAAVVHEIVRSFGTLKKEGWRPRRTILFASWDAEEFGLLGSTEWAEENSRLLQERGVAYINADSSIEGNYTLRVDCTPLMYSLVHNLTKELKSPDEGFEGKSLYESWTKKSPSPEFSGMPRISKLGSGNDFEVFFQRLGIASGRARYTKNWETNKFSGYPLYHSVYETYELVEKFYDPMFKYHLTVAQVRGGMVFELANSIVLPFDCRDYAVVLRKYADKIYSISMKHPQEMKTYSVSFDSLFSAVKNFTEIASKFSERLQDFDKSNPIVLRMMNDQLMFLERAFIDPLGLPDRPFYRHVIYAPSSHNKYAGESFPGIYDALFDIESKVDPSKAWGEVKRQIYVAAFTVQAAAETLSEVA

[2] = tested on: PSMA+ PC3 PIP and PSMA-PC3 flu xenografts; assay: NIR optical imaging, in vivo and ex vivo, of tumor-bearing mice; design: species or system NOD-SCID mice; conditions: for preferential accumulation in PSMA+ PC3 PIP tumors vs PSMA-PC3 flu tumors (optical imaging): whole-body NIR imaging, 800 nm channel
PSMA-PC3 flu tumors = assay: In vivo photoacoustic imaging, PSMA-PC3 flu tumors; design: species or system NOD-SCID mice
Description: To evaluate potential application of the conjugates in photoacoustic imaging, mice used in optical imaging (described in optical imaging section) were imaged using the Nd:YAG OPO laser and Verasonics Vantage 256 ultrasound research platform. […] Under the assumption that different tissue types yield linearly independent PA signal, the two-dimensional (axial and lateral) PA images of the exogeneous imaging agent (conjugate VI) were decomposed from the acquired three-dimensional photoacoustic volume (axial, lateral, and spectral) using non-negative least squares models. The same speed of sound was considered in the beam formation of US and PA imaging. Thus, the two imaging modalities were co-registered by nature. On top of that, image fusion of the two was achieved by using Daubechies 2 wavelet in wavelet transform.
To record background for PA signal mice were imaged before administration of […] and 5, 24, 48, and 72 h after injection (ai). The average PA intensities within the region-of-interest (ROI) of PSMA^+ PC3 normalized with respect to the pre-administration baseline PIP were 25.1±11.0, 30.2±21.1, and 21.8±7.4 at 24, 48 and 72 h ai, respectively. The average PA image intensities within the ROI of PSMA-PC3 flu were 4.2±4.3, 5.9±2.5, 3.8±1.3 (a.u.) at the same time points. […] The normalized PA image intensities of PSMA^+ PC3 PIP tumors were 1.1±0.9, 3.8±4.1, and 1.6±1.4 (a.u.) at 24, 48 and 72 h ai, respectively, and of PSMA-PC3 flu tumors were 2.0±0.9, 3.4±2.4, and 0.9±0.7 (a.u.), respectively.

PSMA+ PC3 PIP tumors = assay: In vivo photoacoustic imaging, PSMA+ PC3 PIP tumors; design: species or system NOD-SCID mice
PSMA [3] = molecular target: T1, PSMA; conditions: cited from earlier work
Target sequence in this assay (Q04609 whole entry, species assumed): as the sequence (Q04609 whole entry) above

[4] = PA tubing phantom experiment; conditions: for RPAmax, ratio of maximum PA intensity in NIR range (with respect to I at 770 nm): 700-900 nm in steps of 10 nm; for RPAmax, ratio of maximum PA intensity in NIR range (with respect to I at 770 nm) / RPA780, ratio of photoacoustic intensity at 780 nm (to conjugate I): same amount of Cy7.5 dye; for PB: abbreviation not defined in the footnote
Description: (§1) All conjugates were formulated into 600 μL sample containing 2.88-nmol Cy7.5 dye. Then, each sample was equally split into three for spectrophotometric, spectrofluorometric, and PA tests, respectively. To obtain the excitation wavelength for fluorescence evaluation as well as estimating the shape of PA spectra, optical absorbance of all conjugates was first tested on a UIV-Vis spectrophotometer. A range from 650 nm to 950 nm (slightly wider than the tunable stable wavelength range on a Nd:YAG OPO laser, i.e., 700 nm to 900 nm) in step of 1 nm was selected. […] Due to the emission limit on the spectrofluorometer (up to 850 nm), the excitation for spectrofluorometry was set at 715 nm, and the emission was set from 750 nm to 850 nm in step of 1 nm. […] Specifically, to avoid the interference of photobleaching wavelengths from 700 nm to 900 nm in step of 10 nm were tested in PA tubing phantom experiment.

[5] = Spectrofluorometric test (fluorescence quenching) of conjugates; conditions: excitation 715 nm, emission 750-850 nm; samples with the same amount of Cy7.5 dye; normalized to conjugate I
Description: as §1

[6] = Spectrophotometric test (UV-Vis optical absorbance) of conjugates
Description: as §1

| Molecule | Kd (PSMA [1]) [nM] | preferential accumulation in PSMA+ PC3 PIP tumors vs PSMA-PC3 flu tumors (optical imaging) [2] | average PA image intensity within ROI of PSMA-PC3 flu (PSMA-PC3 flu tumors; 24 h after injection) [a.u.] | average PA image intensity within ROI of PSMA-PC3 flu (PSMA-PC3 flu tumors; 48 h after injection) [a.u.] | average PA image intensity within ROI of PSMA-PC3 flu (PSMA-PC3 flu tumors; 72 h after injection) [a.u.] | average PA intensity within ROI of PSMA+ PC3 PIP, normalized to pre-injection baseline (PSMA+ PC3 PIP tumors; 24 h after injection) [a.u.] | average PA intensity within ROI of PSMA+ PC3 PIP, normalized to pre-injection baseline (PSMA+ PC3 PIP tumors; 48 h after injection) [a.u.] | average PA intensity within ROI of PSMA+ PC3 PIP, normalized to pre-injection baseline (PSMA+ PC3 PIP tumors; 72 h after injection) [a.u.] | affinity to PSMA (PSMA [3]) | uptake by PSMA+ PC3 PIP cells compared to PSMA-PC3 flu cells (PSMA [1]) | specific uptake by PSMA+ PC3 PIP in presence of an excess of ZJ-43 (PSMA [1]; excess of ZJ-43 (PSMA antagonist)) | internalization in PSMA+ PC3 PIP cells compared to PSMA-PC3 flu cells (PSMA [1]; microscopic evaluation) | RPAmax, ratio of maximum PA intensity in NIR range (with respect to I at 770 nm) [4] [%] | RPA780, ratio of photoacoustic intensity at 780 nm (to conjugate I) [4] [%] | PB [4] [%/sec] | ex vivo fluorescence intensity PSMA+ PC3 PIP/PSMA-PC3 flu ratio ([2]; dissected tissues 72 h after injection of 100 μg (3.72 nmol)) | QR (quenching rate) [5] [%] | ratio of PA intensity to I in 790-900 nm range ([4]; maximum ratio, at 860 nm) [%] | absorbance relative to I below 750 nm [6] |
| --- | --- | --- | --- | --- | --- | --- | --- | --- | --- | --- | --- | --- | --- | --- | --- | --- | --- | --- | --- |
| CN1/C(=C/C=C2C=C(/C=C/C3=[N+](CCCCCC(=O)NCCCC[C@H](NC(=O)CCCCCCC(=O)NCCCC[C@H](NC(=O)N[C@@H](CCC(=O)O)C(=O)O)C(=O)O)C(=O)O)c4ccc5c(S(=O)(=O)O)cc(S(=O)(=O)O)cc5c4C3(C)C)CCC/2)C(C)(C)c2c1ccc1c(S(=O)(=O)[O-])cc(S(=O)(=O)O)cc21 [Conjugate I] | 780 | preferential accumulation | 1.9±1.4 | 19±0.9 | 2.0±1.1 | 21.6±16.8 | 12.7±5.2 | 10.0±4.8 | – | – | – | – | – | – | – | – | – | – | – |
| NCCCCC(NC(=O)NC(CCC(=O)O)C(=O)O)C(=O)O (stereo not drawn) [KEU, Lys-Glu-urea] | – | – | – | – | – | – | – | – | picomolar | – | – | – | – | – | – | – | – | – | – |
| G4(Cy7.5)6(SA-KEU)9(Bdiol)53 [Conjugate IV] | 410 | highly specific accumulation | 4.2±4.3 | 5.9±2.5 | 3.8±1.3 | 25.1±11.0 | 30.2±21.1 | 21.8±7.4 | – | significantly higher uptake | inhibited | significantly higher internalization | 48.1 | 49.0 | 0.037 | 6.2 | 4.4 | – | – |
| G4(Cy7.5)s(SA-KEU)12(Bdiol)52 [Conjugate V] | 78 | – | – | – | – | – | – | – | – | – | – | – | 111.1 | 97.5 | 0.057 | – | 1.3 | ≤ 1257.44 | up to 1.8 times |
| G4(NH2)13(Cy7.5)6(Bdiol)45 [Conjugate VI] | – | did not show preferential uptake | 2.0±0.9 | 3.4±2.4 | 0.9±0.7 | 1.1±0.9 | 3.8±4.1 | 1.6±1.4 | – | – | – | – | 44.6 | 45.4 | – | – | 26.6 | – | – |
| G4(NH2)20(Cy7.5)2(SA-KEU)10(Bdiol)32 [Conjugate II] | 680 | – | – | – | – | – | – | – | – | – | – | – | 30.3 | 30.8 | 0.043 | – | 76.4 | – | – |
| G4(NH2)(Cy7.5)4(SA-KEU)9(Bdiol)30 [Conjugate III] | 270 | – | – | – | – | – | – | – | – | – | – | – | 20.6 | 20.9 | 0.049 | – | 174.9 | – | – |
